The results in this text go back to PubChem BioAssay AID588756 (Broad Institute, 2011).

The experiment deals with Aurora kinase B (Homo sapiens) (UniProt Q96GD4). The experiment in a line: Aurora B kinase inhibition counter-screen, dose response, counter-screen for STK33 inhibitor project, biochemical, scintillation, dry powder, set 2 (AID 588756). Conditions: gamma-32P-ATP (ATP at Km), P30 filter scintillation. (Counterscreens check selectivity or assay interference.)

The AC50 is the concentration at which the activity in the assay is half-maximal.

Calls of active or inactive are those of the source.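 How the source made its calls: active means a falling-signal curve whose fitted AC50 is at most ten times the top valid dose; inconclusive means flat fit with 30 to 70% inhibition, or a poor fit; inactive means the rest.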 Some results are limits rather than exact numbers.

Aurora kinase B (Homo sapiens), sequence (Q96GD4 whole entry, looked up): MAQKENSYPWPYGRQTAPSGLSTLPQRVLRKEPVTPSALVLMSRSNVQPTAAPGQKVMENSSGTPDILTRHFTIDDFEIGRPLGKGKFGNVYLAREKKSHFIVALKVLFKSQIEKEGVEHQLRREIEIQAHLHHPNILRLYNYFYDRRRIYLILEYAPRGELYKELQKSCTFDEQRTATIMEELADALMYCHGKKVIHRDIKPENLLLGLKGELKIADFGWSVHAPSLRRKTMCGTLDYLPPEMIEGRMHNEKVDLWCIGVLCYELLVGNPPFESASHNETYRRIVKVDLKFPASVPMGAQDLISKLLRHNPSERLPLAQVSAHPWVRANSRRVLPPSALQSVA

For the compound `COc1cc(/C=C2\SC(=Nc3ccccc3F)NC2=O)ccc1O`, the AC50 was > 20 µM (inactive).

As for `COc1cc(/C=C2\SC(N)=NC2=O)ccc1O`, the AC50 is > 20 µM (inactive).

Turning to `COc1cc(/C=C2\SC(=Nc3ccccc3Cl)NC2=O)ccc1O`, the AC50 was 10.1 µM.

On to `COc1cc(/C=C2\SC(=NCc3ccccc3)NC2=O)ccc1O`, for which the AC50 is 2.92 µM.

Regarding `COc1cc(/C=C2\S/C(=N/c3ccccn3)NC2=O)ccc1O`, under “at 10 µM (top of the series)”, the “activity change, negative = inhibition” value was “inactive”.
